Assay results published in PubChem BioAssay (NCI).
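Following 48 hours of exposure in 96-well plates, responses at five concentrations were used to interpolate endpoints linearly. TGI marks complete inhibition of growth.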

Legend:
Experiment in all cases: growth of human tumour cells (NCI), 48 h
[1] = tested on: HCT-15 colon
[2] = tested on: KM12 colon
[3] = tested on: ACHN renal
[4] = tested on: HCC-2998 colon
[5] = tested on: 786-0 renal
[6] = tested on: NCI-H23 lung
[7] = tested on: BT-549 breast
[8] = tested on: SK-MEL-5 melanoma
[9] = tested on: MCF7 breast
[10] = tested on: DU-145 prostate
[11] = tested on: NCI-H522 lung
[12] = tested on: NCI-H460 lung
[13] = tested on: HL-60(TB) leukemia
[14] = tested on: K-562 leukemia
[15] = tested on: EKVX NSCLC
[16] = tested on: OVCAR-5 ovarian
[17] = tested on: OVCAR-3 ovarian
[18] = tested on: A549 NSCLC
[19] = tested on: NCI-H226 lung
[20] = tested on: OVCAR-8 ovarian
[21] = tested on: HS 578T breast
[22] = tested on: CCRF-CEM leukemia
[23] = tested on: SNB-19 CNS
[24] = tested on: HOP-92 NSCLC
[25] = tested on: LOX IMVI melanoma
[26] = tested on: HOP-62 NSCLC
[27] = tested on: NCI/ADR-RES ovarian
[28] = tested on: SN12C renal
[29] = tested on: CAKI-1 renal
[30] = tested on: MDA-MB-435
[31] = tested on: U251 CNS
[32] = tested on: UACC-62 melanoma
[33] = tested on: MDA-MB-231 breast
[34] = tested on: SR leukemia
[35] = tested on: SF-268 CNS
[36] = tested on: HCT-116 colon
[37] = tested on: TK-10 renal
[38] = tested on: T-47D breast
[39] = tested on: A498 renal
[40] = tested on: SNB-75 CNS
[41] = tested on: PC-3 prostate
[42] = tested on: UACC-257 melanoma
[43] = tested on: M14 melanoma
[44] = tested on: MDA-N
[45] = tested on: UO-31 renal
[46] = tested on: SF-295 CNS
[47] = tested on: COLO 205 colon
[48] = tested on: SW-620 colon
[49] = tested on: SF-539 CNS
[50] = tested on: HT29 colon
[51] = tested on: SK-MEL-28 melanoma
[52] = tested on: OVCAR-4 ovarian
[53] = tested on: SK-OV-3 ovarian
[54] = tested on: SK-MEL-2 melanoma
[55] = tested on: IGROV1 ovarian
[56] = tested on: MALME-3M melanoma
[57] = tested on: RXF 393 renal
[58] = tested on: MOLT-4 leukemia
[59] = tested on: RPMI-8226 leukemia

CC(C)(C)CC(N)=O
TGI [1]: > 100 µM | TGI [2]: > 100 µM | TGI [3]: > 100 µM | TGI [4]: > 100 µM | TGI [5]: > 100 µM | TGI [6]: > 100 µM | TGI [7]: > 100 µM | TGI [8]: > 100 µM | TGI [9]: > 100 µM | TGI [10]: > 100 µM | TGI [11]: > 100 µM | TGI [12]: > 100 µM | TGI [13]: > 100 µM | TGI [14]: > 100 µM | TGI [15]: > 100 µM | TGI [16]: > 100 µM | TGI [17]: > 100 µM | TGI [18]: > 100 µM | TGI [19]: > 100 µM | TGI [20]: > 100 µM | TGI [21]: > 100 µM | TGI [22]: > 100 µM | TGI [23]: > 100 µM | TGI [24]: > 100 µM | TGI [25]: > 100 µM | TGI [26]: > 100 µM | TGI [27]: > 100 µM | TGI [28]: > 100 µM | TGI [29]: > 100 µM | TGI [30]: > 100 µM | TGI [31]: > 100 µM | TGI [32]: > 100 µM | TGI [33]: > 100 µM | TGI [34]: > 100 µM | TGI [35]: > 100 µM | TGI [36]: > 100 µM | TGI [37]: > 100 µM | TGI [38]: > 100 µM | TGI [39]: > 100 µM | TGI [40]: > 100 µM | TGI [41]: > 100 µM | TGI [42]: > 100 µM | TGI [43]: > 100 µM | TGI [44]: > 100 µM | TGI [45]: > 100 µM | TGI [46]: > 100 µM | TGI [47]: > 100 µM | TGI [48]: > 100 µM | TGI [49]: > 100 µM | TGI [50]: > 100 µM | TGI [51]: > 100 µM | TGI [52]: > 100 µM | TGI [53]: > 100 µM | TGI [54]: > 100 µM | TGI [55]: > 100 µM

O=c1[nH]c(=O)n(C2OC(CO)C(O)C2O)cc1Oc1ccccc1 (centres undefined)
TGI [1]: > 100 µM | TGI [2]: > 100 µM | TGI [3]: > 100 µM | TGI [4]: > 100 µM | TGI [5]: > 100 µM | TGI [6]: > 100 µM | TGI [8]: > 100 µM | TGI [9]: > 100 µM | TGI [10]: > 100 µM | TGI [11]: > 100 µM | TGI [12]: > 100 µM | TGI [13]: > 100 µM | TGI [14]: > 100 µM | TGI [56]: > 100 µM | TGI [15]: > 100 µM | TGI [16]: > 100 µM | TGI [17]: > 100 µM | TGI [57]: > 100 µM | TGI [18]: > 100 µM | TGI [19]: > 100 µM | TGI [20]: > 100 µM | TGI [21]: > 100 µM | TGI [22]: > 100 µM | TGI [23]: > 100 µM | TGI [24]: > 100 µM | TGI [25]: > 100 µM | TGI [26]: > 100 µM | TGI [27]: > 100 µM | TGI [28]: > 100 µM | TGI [29]: > 100 µM | TGI [30]: > 100 µM | TGI [31]: > 100 µM | TGI [32]: > 100 µM | TGI [33]: > 100 µM | TGI [34]: > 100 µM | TGI [35]: > 100 µM | TGI [36]: > 100 µM | TGI [37]: > 100 µM | TGI [38]: > 100 µM | TGI [39]: > 100 µM | TGI [40]: > 100 µM | TGI [41]: > 100 µM | TGI [42]: > 100 µM | TGI [43]: > 100 µM | TGI [44]: > 100 µM | TGI [58]: > 100 µM | TGI [46]: > 100 µM | TGI [47]: > 100 µM | TGI [48]: > 100 µM | TGI [49]: > 100 µM | TGI [50]: > 100 µM | TGI [51]: > 100 µM | TGI [52]: > 100 µM | TGI [53]: > 100 µM | TGI [54]: > 100 µM | TGI [55]: > 100 µM

CCOC(=O)c1[nH]cc(C)c1-c1ccc2c(-c3ccccc3)nc3ccccc3n12
TGI [1]: 13.7 µM | TGI [2]: 13.3 µM | TGI [3]: 15.5 µM | TGI [4]: 9.97 µM | TGI [5]: 12.8 µM | TGI [6]: 23.3 µM | TGI [7]: 17.4 µM | TGI [8]: 6.29 µM | TGI [9]: 14.3 µM | TGI [10]: 13.4 µM | TGI [11]: 4.79 µM | TGI [12]: 12 µM | TGI [14]: 9.13 µM | TGI [15]: 18.2 µM | TGI [16]: 64.5 µM | TGI [17]: 18.5 µM | TGI [57]: 7.22 µM | TGI [18]: 18.5 µM | TGI [19]: 20.1 µM | TGI [20]: 16.7 µM | TGI [21]: 6.5 µM | TGI [22]: 13 µM | TGI [24]: 14 µM | TGI [25]: 12.3 µM | TGI [26]: 29.9 µM | TGI [27]: 10.3 µM | TGI [28]: 15.2 µM | TGI [29]: 17.8 µM | TGI [30]: 11.2 µM | TGI [31]: 11.8 µM | TGI [32]: 10.8 µM | TGI [33]: 12.8 µM | TGI [34]: 5.34 µM | TGI [35]: 17.1 µM | TGI [36]: 12.5 µM | TGI [37]: 15.2 µM | TGI [38]: 18.4 µM | TGI [39]: 9.98 µM | TGI [40]: 5.87 µM | TGI [41]: 12.8 µM | TGI [42]: 24.7 µM | TGI [43]: 27.5 µM | TGI [44]: 14.1 µM | TGI [58]: 9.25 µM | TGI [45]: 14.5 µM | TGI [46]: 13.6 µM | TGI [47]: 14.2 µM | TGI [48]: 16.5 µM | TGI [49]: 9.04 µM | TGI [50]: 11.9 µM | TGI [51]: 14.3 µM | TGI [52]: 16.1 µM | TGI [53]: 23.5 µM | TGI [54]: 16.8 µM | TGI [55]: 16.1 µM

CC(C)(CCCCC(C)(C)[N+](C)(C)C)[N+](C)(C)C
TGI [1]: > 100 µM | TGI [4]: > 100 µM | TGI [5]: > 100 µM | TGI [8]: > 100 µM | TGI [9]: > 100 µM | TGI [11]: > 100 µM | TGI [12]: > 100 µM | TGI [13]: > 100 µM | TGI [14]: > 100 µM | TGI [15]: > 100 µM | TGI [16]: > 100 µM | TGI [18]: > 100 µM | TGI [59]: > 100 µM | TGI [20]: > 100 µM | TGI [21]: > 100 µM | TGI [22]: > 100 µM | TGI [23]: > 100 µM | TGI [26]: > 100 µM | TGI [27]: > 100 µM | TGI [28]: > 100 µM | TGI [30]: > 100 µM | TGI [31]: > 100 µM | TGI [33]: > 100 µM | TGI [34]: > 100 µM | TGI [35]: > 100 µM | TGI [36]: > 100 µM | TGI [37]: > 100 µM | TGI [38]: > 100 µM | TGI [40]: > 100 µM | TGI [41]: > 100 µM | TGI [42]: > 100 µM | TGI [43]: > 100 µM | TGI [44]: > 100 µM | TGI [58]: > 100 µM | TGI [45]: > 100 µM | TGI [47]: > 100 µM | TGI [48]: > 100 µM | TGI [49]: > 100 µM | TGI [50]: > 100 µM | TGI [51]: > 100 µM | TGI [52]: > 100 µM | TGI [53]: > 100 µM | TGI [55]: > 100 µM
